Assay results published in patent US20250230171A1 (MOMA Therapeutics, Inc., priority 2023, published 2025).
Read-outs that look alike come from different tables or passages of the source.

Tests used:
[1] = biological target: biotinylated Avi-POLθ[2-894] (Homo sapiens (Human), UniProt O75417); test: POLθ ATPase assay (ADP-Glo); conditions: n=2, read-out: Biochemical ATPase ADPGlo IC50
DLD1 BRCA2 (−/−) cells = test: 7-day cell viability assay (CellTiter-Glo), DLD1 BRCA2 (−/−); format: cell-based, human; conditions: n=2, read-out: Viability IC50 (uM) DLD1 BRCA2 null
Procedure, shortened: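 7-day growth assay in DLD1 cells with or without BRCA2; seeding densities chosen to keep log-linear growth. Compound: 10 uM top, 3-fold, 9 points. Endpoint: CTG ATP luminescence at RT.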

DLD1 WT cells = test: 7-day cell viability assay (CellTiter-Glo), DLD1 parental (WT); format: cell-based, human; conditions: n=2
[2] = Homo sapiens, DLD-1, 168 h, 7-day viability
[3] = Homo sapiens, DLD-1, 168 h, 7-day CellTiter-Glo

biotinylated Avi-POLθ[2-894], sequence (O75417 2-894): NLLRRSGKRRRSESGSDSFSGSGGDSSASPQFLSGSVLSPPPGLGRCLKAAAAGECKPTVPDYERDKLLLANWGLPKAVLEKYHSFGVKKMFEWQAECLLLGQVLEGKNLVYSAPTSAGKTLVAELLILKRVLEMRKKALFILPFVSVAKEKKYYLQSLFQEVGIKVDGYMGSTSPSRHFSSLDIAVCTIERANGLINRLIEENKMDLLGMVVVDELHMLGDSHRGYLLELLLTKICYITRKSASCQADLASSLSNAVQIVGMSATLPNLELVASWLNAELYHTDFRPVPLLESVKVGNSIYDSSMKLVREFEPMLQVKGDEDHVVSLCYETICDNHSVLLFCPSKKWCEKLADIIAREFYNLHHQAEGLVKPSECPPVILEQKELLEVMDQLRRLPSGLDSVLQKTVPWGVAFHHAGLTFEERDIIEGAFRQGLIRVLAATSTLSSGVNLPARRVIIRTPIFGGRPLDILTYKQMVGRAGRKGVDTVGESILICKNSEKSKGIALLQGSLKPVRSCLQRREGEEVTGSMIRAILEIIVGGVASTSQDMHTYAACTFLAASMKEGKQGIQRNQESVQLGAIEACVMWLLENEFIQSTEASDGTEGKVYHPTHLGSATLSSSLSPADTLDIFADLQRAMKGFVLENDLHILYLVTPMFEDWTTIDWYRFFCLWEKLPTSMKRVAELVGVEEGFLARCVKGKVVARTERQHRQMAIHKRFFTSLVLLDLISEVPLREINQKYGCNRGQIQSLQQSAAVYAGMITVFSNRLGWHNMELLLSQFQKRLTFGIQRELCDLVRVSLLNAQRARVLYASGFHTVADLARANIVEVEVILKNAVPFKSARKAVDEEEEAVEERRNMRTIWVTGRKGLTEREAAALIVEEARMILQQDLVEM

SMILES	IC50 [1]	IC50 (DLD1 BRCA2 (−/−) cells; [2])	IC50 ([1]; POLθ ATPase, ADP-Glo)	IC50 (DLD1 BRCA2 (−/−) cells; [3])	IC50 (DLD1 WT cells; [2])	IC50 (DLD1 WT cells; [3])	IC50 (DLD1 BRCA2 (−/−) cells; 7-day CellTiter-Glo)	IC50 (DLD1 WT cells; 7-day CellTiter-Glo)
COc1ncc(Cl)cc1-c1cc(C)ncc1C(=O)Nc1nc2c(s1)CN(C(=O)c1ccccn1)C2 [Example 118]	1 to 15 nM	0.001 to 0.1 µM			2 to 5 µM			
COc1ccccc1-c1cc(C)ncc1C(=O)Nc1nc2c(s1)CN(Cc1ccccc1)CC2	≥ 900 nM	0.5 to 2 µM			0.5 to 2 µM			
COc1cnc(Cl)cc1-c1cc(C)ncc1C(=O)Nc1nc2c(s1)CN(C(=O)[C@H]1C[C@@H](OC)C1)C2 [Example 171]	1 to 15 nM	0.1 to 0.25 µM			≥ 10 µM			
COc1cnc(Cl)cc1-c1cc(C)ncc1C(=O)Nc1nc2c(s1)CN(C(=O)[C@H]1C[C@H](OC(F)(F)F)C1)C2 [Example 26, 2′-chloro-5′-methoxy-6-methyl-N-(5-((1r,3r)-3-(trifluoromethoxy)cyclobutane-1-carbonyl)-5,6-dihydro-4H-pyrrolo[3,4-d]thiazol-2-yl)-[4,4′-bipyridine]-3-carboxamide]	1 to 15 nM	0.001 to 0.1 µM			5 to 10 µM			
COc1cnc(Cl)cc1-c1cc(C)ncc1C(=O)Nc1nc2c(s1)CN(C(=O)c1c(C(F)F)nn(C)c1Cl)C2 [Example 89, 2′-chloro-N-(5-(5-chloro-3-(difluoromethyl)-1-methyl-1H-pyrazole-4-carbonyl)-5,6-dihydro-4H-pyrrolo[3,4-d]thiazol-2-yl)-5′-methoxy-6-methyl-[4,4′-bipyridine]-3-carboxamide]	1 to 15 nM	0.001 to 0.1 µM			≥ 10 µM			
COc1ccccc1-c1cc(C)ncc1C(=O)Nc1nc2c(s1)CN(c1ccc(Cl)cc1)CC2	≥ 900 nM	≥ 2 µM			≥ 10 µM			
COc1cnc(Cl)cc1-c1cc(C)ncc1C(=O)Nc1nc2c(s1)CN(C(=O)c1cn(C)nc1OC)C2	1 to 15 nM	0.25 to 0.5 µM			≥ 10 µM			
COc1cnc(Cl)cc1-c1cc(C)ncc1C(=O)Nc1nc2c(s1)CN(C(=O)c1nn(C)c(C)c1F)C2 [Example 66]	1 to 15 nM	0.001 to 0.1 µM			5 to 10 µM			
COc1cnc(Cl)cc1-c1cc(C)ncc1C(=O)Nc1nc2c(s1)CN(C(=O)c1ncc(Cl)cc1OC)C2	1 to 15 nM	0.001 to 0.1 µM			≥ 10 µM			
COc1cc(Cl)c(C(=O)N2Cc3nc(NC(=O)c4cnc(C)cc4-c4cc(Cl)ncc4OC)sc3C2)cn1			1 to 15 nM	0.001 to 0.1 µM		≥ 10 µM		
COc1cnc(Cl)cc1-c1cc(C)ncc1C(=O)Nc1nc2c(s1)CN(C(=O)c1ccc(C(F)(F)F)nc1OC)C2 [Example 15, 2′-chloro-5′-methoxy-N-(5-(2-methoxy-6-(trifluoromethyl)nicotinoyl)-5,6-dihydro-4H-pyrrolo[3,4-d]thiazol-2-yl)-6-methyl-[4,4′-bipyridine]-3-carboxamide]	1 to 15 nM	0.001 to 0.1 µM			5 to 10 µM			
COc1ccccc1-c1cc(C)ncc1C(=O)Nc1nc2c(s1)CN(C(=O)C1CC1)CC2	≥ 900 nM	≥ 2 µM			0.5 to 2 µM			
COc1cnc(Cl)cc1-c1cc(C)ncc1C(=O)Nc1nc2c(s1)CN(C(=O)c1c(C(F)F)cnn1C)C2 (racemic)	1 to 15 nM	0.001 to 0.1 µM			≥ 10 µM			
COc1cnc(Cl)cc1-c1cc(C)ncc1C(=O)Nc1nc2c(s1)CN(C(=O)c1ccc(C(F)(F)F)cn1)C2 [Example 132]	1 to 15 nM	0.001 to 0.1 µM			5 to 10 µM			
COc1cnc(Cl)cc1-c1cc(C)ncc1C(=O)Nc1nc2c(s1)CN(C(=O)c1ccc(Cl)c(OC)n1)C2 [Example 421]			1 to 15 nM	0.001 to 0.1 µM		2 to 5 µM		
CCc1cc(C(=O)N2Cc3nc(NC(=O)c4cnc(C)cc4-c4cc(Cl)ncc4OC)sc3C2)n(C)n1 [Example 57, 2′-chloro-N-(5-(3-ethyl-1-methyl-1H-pyrazole-5-carbonyl)-5,6-dihydro-4H-pyrrolo[3,4-d]thiazol-2-yl)-5′-methoxy-6-methyl-[4,4′-bipyridine]-3-carboxamide]	1 to 15 nM	0.001 to 0.1 µM			≥ 10 µM			
COc1cnc(Cl)cc1-c1cc(C)ncc1C(=O)Nc1nc2c(s1)CN(C(=O)c1cc3n(n1)CCC3)C2 [Example 63, 2′-chloro-N-(5-(5,6-dihydro-4H-pyrrolo[1,2-b]pyrazole-2-carbonyl)-5,6-dihydro-4H-pyrrolo[3,4-d]thiazol-2-yl)-5′-methoxy-6-methyl-[4,4′-bipyridine]-3-carboxamide]	1 to 15 nM	0.001 to 0.1 µM			5 to 10 µM			
COc1cnc(C(F)F)c(C(=O)N2Cc3nc(NC(=O)c4cnc(C)cc4-c4cc(Cl)ncc4OC)sc3C2)n1 [Example 503, 2′-Chloro-N-(5-(3-(difluoromethyl)-6-methoxypyrazine-2-carbonyl)-5,6-dihydro-4H-pyrrolo[3,4-d]thiazol-2-yl)-5′-methoxy-6-methyl-[4,4′-bipyridine]-3-carboxamdie]			1 to 15 nM				0.001 to 0.1 µM	≥ 10 µM
COc1cnc(Cl)cc1-c1cc(C)ncc1C(=O)Nc1nc2c(s1)CN(C(=O)c1cccc(C(F)F)n1)C2 [Example 18, 2′-chloro-N-(5-(6-(difluoromethyl)picolinoyl)-5,6-dihydro-4H-pyrrolo[3,4-d]thiazol-2-yl)-5′-methoxy-6-methyl-[4,4′-bipyridine]-3-carboxamide]	1 to 15 nM	0.001 to 0.1 µM			5 to 10 µM			
COc1cnc(Cl)cc1-c1cc(C)ncc1C(=O)Nc1nc2c(s1)CN(C(=O)c1ncccc1OC(F)F)C2 [Example 145]	1 to 15 nM	0.001 to 0.1 µM			≥ 10 µM			
COc1ccccc1-c1cc(C)ncc1C(=O)Nc1nc2c(s1)CN(C(=O)C1CC1)C2	150 to 900 nM	≥ 2 µM			≥ 10 µM			
COc1ccc(C#N)cc1-c1cc(C)ncc1C(=O)Nc1nc2c(s1)CC(Nc1ccccc1)CC2 (stereo not drawn)	1 to 15 nM	0.1 to 0.25 µM			≥ 10 µM			
COc1cnc(Cl)cc1-c1cc(C)ncc1C(=O)Nc1nc2c(s1)CN(C(=O)c1cn(C)nc1Cl)C2 [Example 161]	1 to 15 nM	0.5 to 2 µM			≥ 10 µM			
COc1cnc(Cl)cc1-c1cc(C)ncc1C(=O)Nc1nc2c(s1)CN(C(=O)c1nc3ccccc3o1)C2			1 to 15 nM	0.001 to 0.1 µM		≥ 10 µM		
COc1cnc(Cl)cc1-c1cc(C)ncc1C(=O)Nc1nc2c(s1)CC(Nc1ccccc1)CC2 (stereo not drawn)	1 to 15 nM	0.1 to 0.25 µM			≥ 10 µM			

Further lines, with some results ahead:

IC50 [1]	IC50 (DLD1 BRCA2 (−/−) cells; [2])	IC50 ([1]; POLθ ATPase, ADP-Glo)	IC50 (DLD1 BRCA2 (−/−) cells; [3])	SMILES	IC50 (DLD1 WT cells; [2])	IC50 (DLD1 WT cells; [3])	IC50 (DLD1 BRCA2 (−/−) cells; 7-day CellTiter-Glo)	IC50 (DLD1 WT cells; 7-day CellTiter-Glo)
		1 to 15 nM	0.001 to 0.1 µM	COc1ccc(C#N)cc1-c1cc(C)ncc1C(=O)Nc1nc2c(s1)CN(C(=O)c1cccc(OC)c1Cl)C2		≥ 10 µM		
1 to 15 nM	0.5 to 2 µM			COc1ccc(C#N)cc1-c1cc(C)ncc1C(=O)Nc1nc2c(s1)CN(C(=O)c1cccc(C)n1)C2	≥ 10 µM			
1 to 15 nM	0.1 to 0.25 µM			COc1cnc(Cl)cc1-c1cc(C)ncc1C(=O)Nc1nc2c(s1)CN(C(=O)c1ccc(C)cn1)C2 [Example 199]	5 to 10 µM			
		1 to 15 nM	0.001 to 0.1 µM	COc1cnc(Cl)cc1-c1cc(C)ncc1C(=O)Nc1nc2c(s1)CN(C(=O)c1cccc(Cl)c1OC)C2		5 to 10 µM		
1 to 15 nM	0.001 to 0.1 µM			COc1cnc(Cl)cc1-c1cc(C)ncc1C(=O)Nc1nc2c(s1)CN(C(=O)c1cccnc1OC)C2 [Example 172]	≥ 10 µM			
1 to 15 nM	0.001 to 0.1 µM			COc1cnc(Cl)cc1-c1cc(C)ncc1C(=O)Nc1nc2c(s1)CN(C(=O)c1ccc(Cl)nc1)C2 [Example 13, 2′-chloro-N-(5-(6-chloronicotinoyl)-5,6-dihydro-4H-pyrrolo[3,4-d]thiazol-2-yl)-5′-methoxy-6-methyl-[4,4′-bipyridine]-3-carboxamide]	≥ 10 µM			
1 to 15 nM	0.5 to 2 µM			COc1ccc(C#N)cc1-c1cc(C)ncc1C(=O)Nc1nc2c(s1)CN(C(=O)C1CCCC1)C2	≥ 10 µM			
1 to 15 nM	0.1 to 0.25 µM			COc1cnccc1C(=O)N1Cc2nc(NC(=O)c3cnc(C)cc3-c3cc(Cl)ncc3OC)sc2C1 [Example 168]	≥ 10 µM			
1 to 15 nM	≥ 2 µM			COc1ccc(C#N)cc1-c1cc(C)ncc1C(=O)Nc1nc2c(s1)CN(C(=O)c1ccnc(C)c1)C2	≥ 10 µM			
1 to 15 nM	0.5 to 2 µM			COc1ccncc1C(=O)N1Cc2nc(NC(=O)c3cnc(C)cc3-c3cc(Cl)ncc3OC)sc2C1 [Example 155]	≥ 10 µM			
		1 to 15 nM	0.001 to 0.1 µM	COc1cnc(Cl)cc1-c1cc(C)ncc1C(=O)Nc1nc2c(s1)CN(C(=O)c1cnc(C)cn1)C2		2 to 5 µM		
1 to 15 nM	≥ 2 µM			COc1ccc(C#N)cc1-c1cc(C)ncc1C(=O)Nc1nc2c(s1)CN(C(=O)c1ccncc1C)C2	≥ 10 µM			
		1 to 15 nM	0.1 to 0.25 µM	COc1ccc(C#N)cc1-c1cc(C)ncc1C(=O)Nc1nc2c(s1)CN(C(=O)c1cccc(C(F)F)c1)C2		≥ 10 µM		
1 to 15 nM	0.1 to 0.25 µM			COc1cnc(Cl)cc1-c1cc(C)ncc1C(=O)Nc1nc2c(s1)CN(C(=O)c1ncccc1OC)C2 [Example 169]	≥ 10 µM			
		1 to 15 nM	0.001 to 0.1 µM	COc1nccc(C(=O)N2Cc3nc(NC(=O)c4cnc(C)cc4-c4cc(Cl)ncc4OC)sc3C2)n1		≥ 10 µM		
